Test results reported in patent US10844077B2, “Thiazolyl-containing compounds for treating proliferative diseases” (Dana-Farber Cancer Institute, Inc., priority 2014, dated 2020).
Read-outs that look alike come from different tables or passages of the source.

Key:
Assay type in all cases: binding
broad panel of kinases [1] = biological target: broad panel of kinases (Homo sapiens, UniProt O00238); conditions: BMPR1B; 1 μM
broad panel of kinases [2] = biological target: broad panel of kinases (Homo sapiens, UniProt O15264); conditions: p38-delta; 1 μM
broad panel of kinases [3] = biological target: broad panel of kinases (Homo sapiens, UniProt O60674); conditions: JAK2(JH1domain-catalytic); 1 μM
broad panel of kinases [4] = biological target: broad panel of kinases (Homo sapiens, UniProt O75914); conditions: PAK3; 1 μM
broad panel of kinases [5] = biological target: broad panel of kinases (Homo sapiens, UniProt O95747); conditions: OSR1; 1 μM
broad panel of kinases [6] = biological target: broad panel of kinases (Homo sapiens, UniProt O96013); conditions: PAK4; 1 μM
broad panel of kinases [7] = biological target: broad panel of kinases (Homo sapiens, UniProt P00519, H396P); conditions: 1 μM
broad panel of kinases [8] = biological target: broad panel of kinases (Homo sapiens, UniProt P00519, Y253F); conditions: ABL1(Y253F)-phosphorylated; 1 μM
broad panel of kinases [9] = biological target: broad panel of kinases (Homo sapiens, UniProt P04629); conditions: TRKA; 1 μM
broad panel of kinases [10] = biological target: broad panel of kinases (Homo sapiens, UniProt P10721, D816H); conditions: KIT(D816H); 1 μM
broad panel of kinases [11] = biological target: broad panel of kinases (Homo sapiens, UniProt P15056, V600E); conditions: BRAF(V600E); 1 μM
broad panel of kinases [12] = biological target: broad panel of kinases (Homo sapiens, UniProt P29597); conditions: 1 μM
broad panel of kinases [13] = biological target: broad panel of kinases (Homo sapiens, UniProt P31152); conditions: ERK4; 1 μM
broad panel of kinases [14] = biological target: broad panel of kinases (Homo sapiens, UniProt P36888, R834Q); conditions: FLT3(R834Q); 1 μM
broad panel of kinases [15] = biological target: broad panel of kinases (Homo sapiens, UniProt P37173); conditions: TGFBR2; 1 μM
broad panel of kinases [16] = biological target: broad panel of kinases (Homo sapiens, UniProt P45985); conditions: MEK4; 1 μM
broad panel of kinases [17] = biological target: broad panel of kinases (Homo sapiens, UniProt Q02763); conditions: TIE2; 1 μM
broad panel of kinases [18] = biological target: broad panel of kinases (Homo sapiens, UniProt Q08881); conditions: ITK; 1 μM
broad panel of kinases [19] = biological target: broad panel of kinases (Homo sapiens, UniProt Q09013); conditions: DMPK; 1 μM
broad panel of kinases [20] = biological target: broad panel of kinases (Homo sapiens, UniProt Q13523); conditions: PRP4; 1 μM
broad panel of kinases [21] = biological target: broad panel of kinases (Homo sapiens, UniProt Q13976); conditions: PRKG1; 1 μM
broad panel of kinases [22] = biological target: broad panel of kinases (Homo sapiens, UniProt Q15831); conditions: LKB1; 1 μM
broad panel of kinases [23] = biological target: broad panel of kinases (Homo sapiens, UniProt Q16566); conditions: CAMK4; 1 μM
broad panel of kinases [24] = biological target: broad panel of kinases (Homo sapiens, UniProt Q16832); conditions: DDR2; 1 μM
broad panel of kinases [25] = biological target: broad panel of kinases (Homo sapiens, UniProt Q56UN5); conditions: YSK4; 1 μM
broad panel of kinases [26] = biological target: broad panel of kinases (Homo sapiens, UniProt Q59H18); conditions: TNNI3K; 1 μM
broad panel of kinases [27] = biological target: broad panel of kinases (Homo sapiens, UniProt Q8NE63); conditions: HIPK4; 1 μM
broad panel of kinases [28] = biological target: broad panel of kinases (Homo sapiens, UniProt Q8TBX8); conditions: PIP5K2C; 1 μM
broad panel of kinases [29] = biological target: broad panel of kinases (Homo sapiens, UniProt Q92772); conditions: CDKL2; 1 μM
broad panel of kinases [30] = biological target: broad panel of kinases (Homo sapiens, UniProt Q9BVS4); conditions: RIOK2; 1 μM
broad panel of kinases [31] = biological target: broad panel of kinases (Homo sapiens, UniProt Q9BX84); conditions: TRPM6; 1 μM
broad panel of kinases [32] = biological target: broad panel of kinases (Homo sapiens, UniProt Q9H422); conditions: HIPK3; 1 μM
broad panel of kinases [33] = biological target: broad panel of kinases (Homo sapiens, UniProt Q9HBY8); conditions: SGK2; 1 μM
broad panel of kinases [34] = biological target: broad panel of kinases (Homo sapiens, UniProt Q9UEW8); conditions: STK39; 1 μM
broad panel of kinases [35] = biological target: broad panel of kinases (Homo sapiens, UniProt Q9Y243); conditions: AKT3; 1 μM
broad panel of kinases [36] = biological target: broad panel of kinases (Homo sapiens, UniProt Q9Y6R4); conditions: MAP3K4; 1 μM

Chain of broad panel of kinases (Homo sapiens, UniProt P04629) (P04629 33-796 limits assumed): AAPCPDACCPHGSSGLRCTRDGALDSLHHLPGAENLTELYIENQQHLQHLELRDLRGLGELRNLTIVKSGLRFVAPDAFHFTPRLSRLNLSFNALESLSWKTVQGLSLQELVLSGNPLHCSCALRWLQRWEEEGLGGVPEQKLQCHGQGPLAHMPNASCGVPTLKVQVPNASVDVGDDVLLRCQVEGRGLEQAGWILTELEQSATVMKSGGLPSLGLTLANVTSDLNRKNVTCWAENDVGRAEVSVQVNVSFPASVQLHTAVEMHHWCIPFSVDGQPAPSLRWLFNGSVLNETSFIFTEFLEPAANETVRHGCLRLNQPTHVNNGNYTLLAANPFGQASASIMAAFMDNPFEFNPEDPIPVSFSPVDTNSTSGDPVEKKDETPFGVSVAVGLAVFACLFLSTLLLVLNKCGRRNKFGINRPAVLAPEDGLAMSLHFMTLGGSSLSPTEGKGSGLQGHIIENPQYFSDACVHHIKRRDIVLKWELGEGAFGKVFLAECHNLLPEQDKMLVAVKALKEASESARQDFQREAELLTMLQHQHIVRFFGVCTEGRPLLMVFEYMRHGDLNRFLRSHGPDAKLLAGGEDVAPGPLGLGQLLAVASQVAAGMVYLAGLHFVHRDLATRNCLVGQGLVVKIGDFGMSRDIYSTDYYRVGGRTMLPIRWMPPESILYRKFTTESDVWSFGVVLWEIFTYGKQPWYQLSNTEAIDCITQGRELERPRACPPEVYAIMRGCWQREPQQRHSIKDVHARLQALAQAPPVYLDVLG
Chain of broad panel of kinases (Homo sapiens, UniProt O00238) (O00238 14-502 limits assumed): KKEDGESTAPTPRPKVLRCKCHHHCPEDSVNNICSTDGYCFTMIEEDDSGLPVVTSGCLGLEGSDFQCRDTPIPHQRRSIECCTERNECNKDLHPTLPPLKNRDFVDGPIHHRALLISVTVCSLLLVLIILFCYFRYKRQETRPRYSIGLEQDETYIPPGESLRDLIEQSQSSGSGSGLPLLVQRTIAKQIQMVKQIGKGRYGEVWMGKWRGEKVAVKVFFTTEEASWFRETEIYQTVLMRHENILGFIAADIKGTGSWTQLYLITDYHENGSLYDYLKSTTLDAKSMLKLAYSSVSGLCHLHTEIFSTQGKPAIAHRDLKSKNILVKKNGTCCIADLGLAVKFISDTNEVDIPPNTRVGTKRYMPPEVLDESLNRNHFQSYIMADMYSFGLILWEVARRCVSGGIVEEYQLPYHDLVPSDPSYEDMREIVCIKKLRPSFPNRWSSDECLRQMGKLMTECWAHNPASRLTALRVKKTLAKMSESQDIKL
Chain of broad panel of kinases (Homo sapiens, UniProt P37173) (P37173 23-567 limits assumed): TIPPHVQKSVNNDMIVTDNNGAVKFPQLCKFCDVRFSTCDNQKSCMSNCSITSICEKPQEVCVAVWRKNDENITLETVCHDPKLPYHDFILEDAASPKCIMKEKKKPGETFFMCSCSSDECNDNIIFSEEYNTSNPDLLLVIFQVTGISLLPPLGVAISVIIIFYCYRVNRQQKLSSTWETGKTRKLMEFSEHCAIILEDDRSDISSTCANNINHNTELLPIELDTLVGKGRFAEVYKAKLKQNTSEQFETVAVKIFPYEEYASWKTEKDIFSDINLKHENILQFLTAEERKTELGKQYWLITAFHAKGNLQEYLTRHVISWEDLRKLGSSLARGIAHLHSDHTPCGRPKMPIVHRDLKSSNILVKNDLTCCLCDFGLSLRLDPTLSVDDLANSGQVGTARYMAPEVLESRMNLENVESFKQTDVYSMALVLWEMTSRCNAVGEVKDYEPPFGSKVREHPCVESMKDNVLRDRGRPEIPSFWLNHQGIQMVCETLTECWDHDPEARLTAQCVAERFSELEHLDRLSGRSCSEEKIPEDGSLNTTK
Chain of broad panel of kinases (Homo sapiens, UniProt Q9Y243) (Q9Y243 2-479 limits assumed): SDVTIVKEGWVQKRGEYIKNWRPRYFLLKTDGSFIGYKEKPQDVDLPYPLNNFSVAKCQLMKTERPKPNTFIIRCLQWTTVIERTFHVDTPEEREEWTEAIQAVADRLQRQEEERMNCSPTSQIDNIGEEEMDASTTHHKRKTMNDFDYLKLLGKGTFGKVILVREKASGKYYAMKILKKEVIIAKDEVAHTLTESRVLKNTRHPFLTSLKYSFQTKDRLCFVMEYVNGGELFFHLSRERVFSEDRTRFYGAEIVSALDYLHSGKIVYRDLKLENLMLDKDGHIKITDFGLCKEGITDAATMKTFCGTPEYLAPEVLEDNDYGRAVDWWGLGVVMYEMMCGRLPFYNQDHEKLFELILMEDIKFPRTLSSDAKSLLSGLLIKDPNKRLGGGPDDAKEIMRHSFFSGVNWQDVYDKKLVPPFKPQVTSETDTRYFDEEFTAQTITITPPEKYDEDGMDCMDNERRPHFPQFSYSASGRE
Chain of broad panel of kinases (Homo sapiens, UniProt Q13976) (Q13976 2-671 limits assumed): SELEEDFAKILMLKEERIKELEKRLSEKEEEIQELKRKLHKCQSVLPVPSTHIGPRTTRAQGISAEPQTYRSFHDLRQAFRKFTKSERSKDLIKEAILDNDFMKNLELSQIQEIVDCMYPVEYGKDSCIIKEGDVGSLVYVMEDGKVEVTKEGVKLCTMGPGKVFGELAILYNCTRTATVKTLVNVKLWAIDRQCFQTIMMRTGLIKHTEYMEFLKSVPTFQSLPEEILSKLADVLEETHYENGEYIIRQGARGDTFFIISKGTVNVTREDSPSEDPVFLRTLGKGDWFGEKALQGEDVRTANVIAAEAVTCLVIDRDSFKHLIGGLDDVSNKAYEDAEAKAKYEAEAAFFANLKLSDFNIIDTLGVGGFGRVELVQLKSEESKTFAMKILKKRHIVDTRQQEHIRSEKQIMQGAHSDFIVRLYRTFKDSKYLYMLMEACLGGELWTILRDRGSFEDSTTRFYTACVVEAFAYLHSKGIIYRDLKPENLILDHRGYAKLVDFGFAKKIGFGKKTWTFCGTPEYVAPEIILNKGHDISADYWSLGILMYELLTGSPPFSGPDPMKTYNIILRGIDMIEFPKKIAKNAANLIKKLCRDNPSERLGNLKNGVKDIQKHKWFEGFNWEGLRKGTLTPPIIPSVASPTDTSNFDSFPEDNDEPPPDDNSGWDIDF
Chain of broad panel of kinases (Homo sapiens, UniProt Q16832) (Q16832 22-855 limits assumed): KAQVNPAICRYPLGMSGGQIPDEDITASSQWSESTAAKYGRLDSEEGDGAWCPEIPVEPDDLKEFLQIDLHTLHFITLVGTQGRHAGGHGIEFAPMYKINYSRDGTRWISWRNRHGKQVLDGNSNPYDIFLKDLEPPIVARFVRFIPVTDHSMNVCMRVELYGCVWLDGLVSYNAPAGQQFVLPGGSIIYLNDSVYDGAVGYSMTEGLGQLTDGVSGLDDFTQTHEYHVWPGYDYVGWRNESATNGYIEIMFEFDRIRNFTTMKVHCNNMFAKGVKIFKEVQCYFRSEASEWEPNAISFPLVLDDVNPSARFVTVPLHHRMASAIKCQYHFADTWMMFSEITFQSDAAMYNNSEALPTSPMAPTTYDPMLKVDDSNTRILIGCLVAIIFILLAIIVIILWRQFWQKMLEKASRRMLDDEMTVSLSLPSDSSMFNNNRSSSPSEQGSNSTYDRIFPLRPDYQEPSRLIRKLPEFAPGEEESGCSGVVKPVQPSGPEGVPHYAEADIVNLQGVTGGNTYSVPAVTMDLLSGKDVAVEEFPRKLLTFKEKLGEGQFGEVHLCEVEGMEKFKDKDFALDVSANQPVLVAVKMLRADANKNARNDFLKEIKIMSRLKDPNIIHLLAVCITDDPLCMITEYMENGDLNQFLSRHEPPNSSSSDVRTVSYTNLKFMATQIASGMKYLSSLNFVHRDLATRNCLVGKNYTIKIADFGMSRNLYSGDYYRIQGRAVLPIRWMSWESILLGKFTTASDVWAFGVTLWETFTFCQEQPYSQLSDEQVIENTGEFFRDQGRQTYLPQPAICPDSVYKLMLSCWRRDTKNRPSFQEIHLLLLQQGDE
Chain of broad panel of kinases (Homo sapiens, UniProt Q8TBX8) (Q8TBX8 2-421 limits assumed): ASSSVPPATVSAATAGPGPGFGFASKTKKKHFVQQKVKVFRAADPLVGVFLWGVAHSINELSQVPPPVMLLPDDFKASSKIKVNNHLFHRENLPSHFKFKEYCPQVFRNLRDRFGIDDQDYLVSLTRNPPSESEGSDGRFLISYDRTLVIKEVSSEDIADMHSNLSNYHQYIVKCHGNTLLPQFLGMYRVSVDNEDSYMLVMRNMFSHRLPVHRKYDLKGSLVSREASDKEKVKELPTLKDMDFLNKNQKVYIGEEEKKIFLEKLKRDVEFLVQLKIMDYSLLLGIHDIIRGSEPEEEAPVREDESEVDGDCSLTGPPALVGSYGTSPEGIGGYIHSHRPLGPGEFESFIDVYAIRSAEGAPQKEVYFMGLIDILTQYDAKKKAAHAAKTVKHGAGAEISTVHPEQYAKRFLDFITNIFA
Chain of broad panel of kinases (Homo sapiens, UniProt P45985) (P45985 2-399 limits assumed): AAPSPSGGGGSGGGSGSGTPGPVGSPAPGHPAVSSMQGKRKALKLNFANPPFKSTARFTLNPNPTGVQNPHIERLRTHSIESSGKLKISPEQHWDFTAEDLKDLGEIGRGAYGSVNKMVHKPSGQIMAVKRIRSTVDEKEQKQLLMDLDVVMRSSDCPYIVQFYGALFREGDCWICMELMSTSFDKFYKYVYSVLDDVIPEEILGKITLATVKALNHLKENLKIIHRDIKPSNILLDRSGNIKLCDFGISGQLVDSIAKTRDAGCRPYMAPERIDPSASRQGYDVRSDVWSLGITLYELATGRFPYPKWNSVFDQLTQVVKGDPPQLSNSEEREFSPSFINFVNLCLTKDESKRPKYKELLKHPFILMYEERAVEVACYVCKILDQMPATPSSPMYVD

SMILES | percent of control binding remaining (lower = stronger binding) (broad panel of kinases [1]) | percent of control binding remaining (lower = stronger binding) (broad panel of kinases [2]) | percent of control binding remaining (lower = stronger binding) (broad panel of kinases [3]) | percent of control binding remaining (lower = stronger binding) (broad panel of kinases [4]) | percent of control binding remaining (lower = stronger binding) (broad panel of kinases [5]) | percent of control binding remaining (lower = stronger binding) (broad panel of kinases [6]) | percent of control binding remaining (lower = stronger binding) (broad panel of kinases [9]) | percent of control binding remaining (lower = stronger binding) (broad panel of kinases [10]) | percent of control binding remaining (lower = stronger binding) (broad panel of kinases [11]) | percent of control binding remaining (lower = stronger binding) (broad panel of kinases [12]; TYK2(JH1domain-catalytic)) | percent of control binding remaining (lower = stronger binding) (broad panel of kinases [12]; TYK2(JH2domain-pseudokinase)) | percent of control binding remaining (lower = stronger binding) (broad panel of kinases [13]) | percent of control binding remaining (lower = stronger binding) (broad panel of kinases [14]) | percent of control binding remaining (lower = stronger binding) (broad panel of kinases [15]) | percent of control binding remaining (lower = stronger binding) (broad panel of kinases [16]) | percent of control binding remaining (lower = stronger binding) (broad panel of kinases [18]) | percent of control binding remaining (lower = stronger binding) (broad panel of kinases [19]) | percent of control binding remaining (lower = stronger binding) (broad panel of kinases [20]) | percent of control binding remaining (lower = stronger binding) (broad panel of kinases [21]) | percent of control binding remaining (lower = stronger binding) (broad panel of kinases [22]) | also measured
C=CC(=O)N1CC[C@H](Nc2nccc(Nc3ncc(C(=O)Nc4c(C)cccc4C)s3)n2)C1 [Example I-3] | 45% | 100% | 82% | 51% | 98% | 100% | 99% | 23% | 2.1% | 91% | 26% | 62% | 100% | 100% | 100% | 98% | 98% | 100% | 100% | 100% | % change compared to control (broad panel of kinases [7]; ABL1(H396P)-nonphosphorylated): 0.05%; % change compared to control (broad panel of kinases [7]; ABL1(H396P)-phosphorylated): 0%; % change compared to control (broad panel of kinases [8]): 0.1%; % change compared to control (broad panel of kinases [17]): 100%; percent of control binding remaining (lower = stronger binding) (broad panel of kinases [23]): 84%; percent of control binding remaining (lower = stronger binding) (broad panel of kinases [24]): 8.4%; percent of control binding remaining (lower = stronger binding) (broad panel of kinases [25]): 100%; percent of control binding remaining (lower = stronger binding) (broad panel of kinases [26]): 44%; percent of control binding remaining (lower = stronger binding) (broad panel of kinases [27]): 97%; percent of control binding remaining (lower = stronger binding) (broad panel of kinases [28]): 100%; percent of control binding remaining (lower = stronger binding) (broad panel of kinases [29]): 78%; percent of control binding remaining (lower = stronger binding) (broad panel of kinases [30]): 77%; percent of control binding remaining (lower = stronger binding) (broad panel of kinases [31]): 63%; percent of control binding remaining (lower = stronger binding) (broad panel of kinases [32]): 100%; percent of control binding remaining (lower = stronger binding) (broad panel of kinases [33]): 76%; percent of control binding remaining (lower = stronger binding) (broad panel of kinases [34]): 71%; percent of control binding remaining (lower = stronger binding) (broad panel of kinases [35]): 81%; percent of control binding remaining (lower = stronger binding) (broad panel of kinases [36]): 95%
C=CC(=O)N1CC[C@H](Nc2nc(CN3CCOCC3)cc(Nc3ncc(C(=O)Nc4c(C)cccc4C)s3)n2)C1 [Example I-2] | 10% | 100% | 65% | 75% | 81% | 100% | 98% | 14% | 1.6% | 89% | 28% | 90% | 100% | 94% | 100% | 100% | 98% | 95% | 100% | 100% | percent of control binding remaining (lower = stronger binding) (broad panel of kinases [7]; ABL1(H396P)-nonphosphorylated): 0%; percent of control binding remaining (lower = stronger binding) (broad panel of kinases [7]; ABL1(H396P)-phosphorylated): 0%; percent of control binding remaining (lower = stronger binding) (broad panel of kinases [8]): 0.1%; percent of control binding remaining (lower = stronger binding) (broad panel of kinases [17]): 100%; percent of control binding remaining (lower = stronger binding) (broad panel of kinases [23]): 96%; percent of control binding remaining (lower = stronger binding) (broad panel of kinases [24]): 8.6%; percent of control binding remaining (lower = stronger binding) (broad panel of kinases [25]): 100%; percent of control binding remaining (lower = stronger binding) (broad panel of kinases [26]): 16%; percent of control binding remaining (lower = stronger binding) (broad panel of kinases [27]): 100%; percent of control binding remaining (lower = stronger binding) (broad panel of kinases [28]): 100%; percent of control binding remaining (lower = stronger binding) (broad panel of kinases [29]): 88%; percent of control binding remaining (lower = stronger binding) (broad panel of kinases [30]): 92%; percent of control binding remaining (lower = stronger binding) (broad panel of kinases [31]): 61%; percent of control binding remaining (lower = stronger binding) (broad panel of kinases [32]): 95%; percent of control binding remaining (lower = stronger binding) (broad panel of kinases [33]): 72%; percent of control binding remaining (lower = stronger binding) (broad panel of kinases [34]): 92%; percent of control binding remaining (lower = stronger binding) (broad panel of kinases [35]): 90%; percent of control binding remaining (lower = stronger binding) (broad panel of kinases [36]): 83%
